Patent US8344008B2 (Janssen Pharmaceutica NV, priority 2007, dated 2013)
Structures can show the parent of a compound that is named as a salt.

Molecular target: T1, recombinant human LTA4 hydrolase (rhLTA4H) (Homo sapiens, UniProt P09960)
T1 construct: made in house; host or cells: Spodoptera frugiperda (Sf-9) cells, baculovirus (pFastBac1)
T1 sequence (P09960 1-611): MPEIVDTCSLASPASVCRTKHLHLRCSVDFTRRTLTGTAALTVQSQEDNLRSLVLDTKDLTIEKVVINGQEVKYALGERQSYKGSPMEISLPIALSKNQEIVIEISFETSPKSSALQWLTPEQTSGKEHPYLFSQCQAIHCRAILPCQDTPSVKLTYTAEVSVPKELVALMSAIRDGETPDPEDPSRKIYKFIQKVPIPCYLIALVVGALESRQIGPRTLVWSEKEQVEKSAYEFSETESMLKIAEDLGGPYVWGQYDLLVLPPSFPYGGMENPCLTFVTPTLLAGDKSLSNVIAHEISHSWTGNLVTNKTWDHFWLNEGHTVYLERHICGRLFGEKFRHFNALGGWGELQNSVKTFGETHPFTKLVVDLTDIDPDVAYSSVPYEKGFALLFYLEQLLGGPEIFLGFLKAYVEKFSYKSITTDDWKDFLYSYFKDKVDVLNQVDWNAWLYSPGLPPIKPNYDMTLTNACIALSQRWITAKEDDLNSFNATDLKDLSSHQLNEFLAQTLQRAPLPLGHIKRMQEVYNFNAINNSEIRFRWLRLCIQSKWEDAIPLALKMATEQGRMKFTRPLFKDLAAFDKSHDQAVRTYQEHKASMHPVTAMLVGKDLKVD
Assay: Recombinant Human LTA4 Hydrolase Assay for LTA4 Hydrolase Inhibitor Activity
Assay type: biochemical
Conditions: average of results obtained; LTB4 quantified by enzyme-linked immunoassay
Experimental: Biological Methods: Recombinant Human LTA4 Hydrolase Assay for LTA4 Hydrolase Inhibitor Activity
Compounds of the present invention were tested for LTA4 hydrolase inhibitor activity against recombinant human LTA4 hydrolase (rhLTA4H). Vectors were prepared and used to express rhLTA4H essentially as follows: LTA4 hydrolase encoding DNA was amplified by polymerase chain reaction (PCR) using a human placental cDNA library as a template. Oligonucleotide primers for the PCR reaction were based on the 5′-end, and the complement of the 3′-end, of the published nucleotide sequence for the coding region of the human LTA4 hydrolase gene (C. D. Funk et al., Proc. Natl. Acad. Sci. USA 1987, 84:6677-6681). The amplified 1.9 kb DNA fragment encoding LTA4 hydrolase was isolated and cloned into the pFastBac1 vector (Invitrogen). Recombinant baculovirus was generated as described by the manufacturer, and used to infect Spodoptera frugiperda (Sf-9) cells. Recombinant LTA4 hydrolase enzyme was purified from the infected Sf-9 cells essentially as described by J. K. Gierse et al. (Protein Expression and Purification 1993, 4:358-366). The purified enzyme solution was adjusted to contain 0.29 mg/mL LTA4 hydrolase, 50 mM Tris (pH 8.0), 150 mM NaCl, 5 mM dithiothreitol, 50% glycerol, and EDTA-free Complete protease inhibitor cocktail (Roche). The specific activity of the enzyme was about 3.8 μmol/min/mg.
LTA4 substrate was prepared from the methyl ester of LTA4 (Cayman Chemical) by treatment with 67 equiv of NaOH under nitrogen at rt for 40 min. The LTA4 substrate in its free acid form was kept frozen at −80° C. until needed. Each compound was diluted to different concentrations in assay buffer (0.1 M potassium phosphate (pH 7.4), 5 mg/mL fatty acid free BSA) containing 10% DMSO. A 25-uL aliquot of each compound dilution was incubated for 10 min at rt with an equal volume of assay buffer containing 36 ng of recombinant human LTA4H. The solution was then adjusted to 200 μL with assay buffer. LTA4 (free acid) was thawed and diluted in assay buffer to a concentration of 357 ng/mL, and 25 μL (9 ng) of LTA4 substrate was added to the reaction mixture (total volume=225 μL) at time zero. Each reaction was carried out at rt for 10 min. The reaction was stopped by diluting 10 μL of the reaction mixture with 200 μL of assay buffer. LTB4 was quantified in the diluted sample by a commercially available enzyme-linked immunoassay (Cayman Chemical Co.), as recommended by the manufacturer. Positive controls, under essentially identical conditions but without addition of an inhibitor compound, and negative controls, containing all assay components except enzyme, were routinely run in each experiment. […]
Results for the compounds tested in this assay are presented in Table 1 as an average of results obtained.

Row | Compound | Ki
1 | CC(C)(O)C(=O)N1C[C@@H]2C[C@H]1CN2CCc1cccc(Oc2nc3ccccc3s2)c1 [Example 19, (S,S)-1-(5-{2-[3-(Benzothiazol-2-yloxy)-phenyl]-ethyl}-2,5-diaza-bicyclo[2.2.1]hept-2-yl)-2-hydroxy-2-methyl-propan-1-one] | 163 nM
2 | CC(=O)N1CC2CN(Cc3ccc(Oc4nc5ccccc5s4)cc3)CC2C1 (centres unmarked) [Example 88, 1-{5-[4-(Benzothiazol-2-yloxy)-benzyl]-hexahydro-pyrrolo[3,4-c]pyrrol-2-yl}-ethanone] | 3 nM
3 | NC(=O)N1C[C@H]2C[C@@H]1CN2Cc1ccc(Oc2nc3ccccc3s2)cc1 [Example 34, (R,R)-5-[4-(Benzothiazol-2-yloxy)-benzyl]-2,5-diaza-bicyclo[2.2.1]heptane-2-carboxylic acid amide] | 7 nM
4 | CS(=O)(=O)N[C@@H]1C[C@H]2CC[C@@H](C1)N2Cc1ccc(Oc2nc3c(F)cccc3s2)cc1 [Example 188, meso-exo-N-{8-[4-(4-Fluoro-benzothiazol-2-yloxy)-benzyl]-8-aza-bicyclo[3.2.1]oct-3-yl}-methanesulfonamide] | 4 nM
5 | NC(=O)N[C@H]1C[C@H]2CC[C@@H](C1)N2Cc1ccc(Cc2nc3ccccc3s2)cc1 [Example 36, meso-endo-[8-(4-Benzothiazol-2-ylmethyl-benzyl)-8-aza-bicyclo[3.2.1]oct-3-yl]-urea] | 94 nM
6 | NCC(=O)N1C2CCC1CN(Cc1ccc(Oc3nc4ccccc4s3)cc1)C2 [Example 55, meso-2-Amino-1-{3-[4-(benzothiazol-2-yloxy)-benzyl]-3,8-diaza-bicyclo[3.2.1]oct-8-yl}-ethanone] | 116 nM
7 | O=C(C1CCC1)N1CC2CN(Cc3ccc(Oc4nc5ccccc5s4)cc3)CC2C1 (centres unmarked) [Example 104, {5-[4-(Benzothiazol-2-yloxy)-benzyl]-hexahydro-pyrrolo[3,4-c]pyrrol-2-yl}-cyclobutyl-methanone] | 62 nM
8 | CC(=O)N1C[C@@H]2C[C@H]1CN2CCOc1ccc(Oc2nc3cc(Cl)ccc3s2)cc1 [Example 264, (S,S)-1-(5-{2-[4-(5-Chloro-benzothiazole-2-yloxy)-phenoxy]-ethyl}-2,5-diaza-bicyclo[2.2.1]hept-2-yl)-ethanone] | 212 nM
9 | CC(=O)N[C@H]1C[C@H]2CC[C@@H](C1)N2Cc1ccc(Oc2nc3ccccc3s2)cc1 [Example 52, meso-endo-N-{8-[4-(Benzothiazol-2-yloxy)-benzyl]-8-aza-bicyclo[3.2.1]oct-3-yl}-acetamide] | 2 nM
10 | CS(=O)(=O)N1CC2CCC(C1)N2CCOc1ccc(Oc2nc3cc(Cl)ccc3s2)cc1 [Example 256, meso-5-Chloro-2-{4-[2-(3-methanesulfonyl-3,8-diaza-bicyclo[3.2.1]oct-8-yl)-ethoxy]-phenoxy}-benzothiazole] | 1710 nM
11 | CC(=O)N[C@H]1C[C@H]2CC[C@@H](C1)N2CCc1ccc(Oc2nc3cccc(Cl)c3s2)cc1 [Example 187, meso-endo-N-(8-{2-[4-(7-Chloro-benzothiazol-2-yloxy)-phenyl]-ethyl}-8-aza-bicyclo[3.2.1]oct-3-yl)-acetamide] | 975 nM
12 | CC(C)(C)OC(=O)CN1C[C@@H]2C[C@H]1CN2Cc1ccc(Oc2nc3ccccc3s2)cc1 [Example 50, (S,S)-{5-[4-(Benzothiazol-2-yloxy)-benzyl]-2,5-diaza-bicyclo[2.2.1]hept-2-yl}-acetic acid tert-butyl ester] | 9 nM
13 | CC(=O)N1CC2CCC(C1)N2CCc1ccc(Oc2nc3ccc(Cl)cc3s2)cc1 [Example 250, meso-1-(8-{2-[4-(6-Chloro-benzothiazol-2-yloxy)-phenyl]-ethyl}-3,8-diaza-bicyclo[3.2.1]oct-3-yl)-ethanone] | 232 nM
14 | CS(=O)(=O)N1CC2CCC(C1)N2Cc1ccc(Oc2nc3c(F)cccc3s2)cc1 [Example 258, meso-4-Fluoro-2-[4-(3-methanesulfonyl-3,8-diaza-bicyclo[3.2.1]oct-8-ylmethyl)-phenoxy]-benzothiazole] | 8 nM
15 | c1ccc2sc(Oc3ccc(CN4C[C@@H]5C[C@H]4CN5)cc3)nc2c1 [Example 1B, (S,S)-2-[4-(2,5-Diaza-bicyclo[2.2.1]hept-2-ylmethyl)-phenoxy]-benzothiazole hydrochloride] | 54 nM
16 | CS(=O)(=O)N1CC2CN(Cc3ccc(Cc4nc5ccccc5s4)cc3)CC2C1 (centres unmarked) [Example 150, 2-[4-(5-Methanesulfonyl-hexahydro-pyrrolo[3,4-c]pyrrol-2-ylmethyl)-benzyl]-benzothiazole] | 193 nM

Continued, values first:

Row | Ki | Compound
17 | 20 nM | CS(=O)(=O)N1[C@@H]2CC[C@H]1C[C@H](NCCOc1ccc(Oc3nc4c(F)cccc4s3)cc1)C2 [Example 213, meso-exo-{2-[4-(4-Fluoro-benzothiazol-2-yloxy)-phenoxy]-ethyl}-(8-methanesulfonyl-8-aza-bicyclo[3.2.1]oct-3-yl)-amine]
18 | 108 nM | O=C([C@@H]1CCCO1)N1CC2CN(Cc3ccc(Oc4nc5ccccc5s4)cc3)CC2C1 (stereo partly drawn) [Example 101, (S)-{5-[4-(Benzothiazol-2-yloxy)-benzyl]-hexahydro-pyrrolo[3,4-c]pyrrol-2-yl}-(tetrahydro-furan-2-yl)-methanone]
19 | 33 nM | NCC(=O)N1CC2CN(Cc3ccc(Oc4nc5ccccc5s4)cc3)CC2C1 (centres unmarked) [Example 97, 2-Amino-1-{5-[4-(benzothiazol-2-yloxy)-benzyl]-hexahydro-pyrrolo[3,4-c]pyrrol-2-yl}-ethanone]
20 | 97 nM | c1ccc2sc(Oc3ccc(CN4CCC5CNCC54)cc3)nc2c1 (centres unmarked) [Example 82, 2-[4-(Hexahydro-pyrrolo[3,4-b]pyrrol-1-ylmethyl)-phenoxy]-benzothiazole hydrochloride]
21 | 33 nM | NC(=O)N1CCC2CN(Cc3ccc(Oc4nc5ccccc5s4)cc3)CC2C1 (centres unmarked) [Example 143, 2-[4-(Benzothiazol-2-yloxy)-benzyl]-octahydro-pyrrolo[3,4-c]pyridine-5-carboxylic acid amide]
22 | 159 nM | CS(=O)(=O)N1CC2CCC(C1)N2CCOc1ccc(Oc2nc3cccc(F)c3s2)cc1 [Example 211, meso-7-Fluoro-2-{4-[2-(3-methanesulfonyl-3,8-diaza-bicyclo[3.2.1]oct-8-yl)-ethoxy]-phenoxy}-benzothiazole]
23 | 60 nM | NC(=O)N1C[C@@H]2C[C@H]1CN2Cc1ccc(Oc2nc3ccccc3s2)cc1F [Example 80, (S,S)-5-[4-(Benzothiazol-2-yloxy)-2-fluoro-benzyl]-2,5-diaza-bicyclo[2.2.1]heptane-2-carboxylic acid amide]
24 | 21 nM | CC(C)(C)OC(=O)NC1(C(=O)N2C[C@@H]3C[C@H]2CN3Cc2ccc(Oc3nc4ccccc4s3)cc2)CC1 [Example 63, (S,S)-(1-{5-[4-(Benzothiazol-2-yloxy)-benzyl]-2,5-diaza-bicyclo[2.2.1]heptane-2-carbonyl}-cyclopropyl)-carbamic acid tert-butyl ester]
25 | 445 nM | Cc1ccc2nc(Oc3ccc(OCCN[C@H]4C[C@H]5CC[C@@H](C4)N5S(C)(=O)=O)cc3)sc2c1 [Example 220, meso-endo-(8-Methanesulfonyl-8-aza-bicyclo[3.2.1]oct-3-yl)-{2-[4-(6-methyl-benzothiazol-2-yloxy)-phenoxy]-ethyl}-amine]
26 | 5 nM | NC(=O)N[C@@H]1C[C@H]2CC[C@@H](C1)N2CCOc1ccc(Oc2nc3c(F)cccc3s2)cc1 [Example 204, meso-exo-(8-{2-[4-(4-Fluoro-benzothiazol-2-yloxy)-phenoxy]-ethyl}-8-aza-bicyclo[3.2.1]oct-3-yl)-urea]
